Read-outs that look alike come from different tables or passages of the source.
What was measured:
H23 cells = assay: Cell viability (CyQuant assay), H23; type: cell-based; conditions: 72 hours; for HillSlope / LogIC50 / IC50: H23 viability, best-fit value; for EC50 / IC50: Homo sapiens, NCI-H23; for EC50: H23, read-out: EC50 of effect on viability
Procedure: (§1) Certain NSCLC cell lines (H460, H1299, A549, and H1975) were purchased from American Type Culture Collection (ATCC; Manassas, Va.). The H23NSCLC cell line was obtained from the National Cancer Institute (NCI; Bethesda, Md.). Cell lines were cultured in their respective media, as recommended by ATCC and NCI. AZA was manufactured at Aptuit (Greenwich, Conn.) for Celgene (Summit, N.J.), while DAC was purchased from Sigma-Aldrich (St. Louis, Mo.). In all experiments, cells were seeded 24 hours before drug treatment and incubated at 37° C./5% CO2, For cell viability assays, H460, H1299, A549, H23, and H1975 cells were seeded in triplicate at 1×10^3, 1×10^3, 1×10^3, 4×10^3, and 4×10^3 cells per well, respectively, in 96-well plates, using 200 μL of medium per well. Fresh drug was added every 24 hours by replacing medium with drug-containing medium. For all other assays, cells were seeded at 0.6-1.2×10^5 cells per well, in 6-well plates, using 4 mL of medium per well, with fresh drug added directly to the medium every 24 hours.
(§2) Cell viability was assessed using the CyQuant assay (Life Technologies Corporation; Carlsbad, Calif.). Fluorescence was measured with a spectrophotometer (Molecular Devices; Sunnyvale, Calif.), and EC50 values were calculated in Prism® version 5.01 (GraphPad Software, Inc.; La Jolla, Calif.), using results from three independent experiments.
(§3) The six data sets represent calculations of EC50 values from raw data using Prism®. The standard deviation among the three independent experiments was determined at each drug concentration. For some of the cell lines, Prism® was not able to calculate the EC50 for DAC. For those curves that an EC50 was available, the SE (Std. Error) was acceptable (SE of the logEC50 should be less than 0.5), meaning that the standard errors were not too large. The 95% Confidence Intervals for the EC50 were considered as a measure of error.

H1299 cells = assay: Cell viability (CyQuant assay), H1299; type: cell-based; conditions: 72 hours; for HillSlope / LogIC50 / IC50: H1299 viability, best-fit value; for EC50 / IC50: Homo sapiens, NCI-H1299; for EC50: H1299, read-out: EC50 of effect on viability
Procedure: as §1, §2, §3

DNMT1 [1] = assay: DNMT1 protein depletion, H1299; type: cell-based; conditions: for DNMT1 protein levels: dose range
Procedure: (§4) For western analyses of protein levels, cells were washed with PBS and lysed with RIPA buffer (Cell Signaling Technology, Inc.; Danvers, Mass.) containing 350 mM NaCl and 0.1% SDS. Cell lysates were sonicated with two 5-second bursts under low amplitude (20%) using the Digital Sonic Dismembrator (Thermo Fisher Scientific, Inc.; Waltham, Mass.). Proteins were separated on 4-12% Bis-Tris NuPAGE gels (Life Technologies Corporation) and transferred to nitrocellulose membranes. DNMT1, phos-Histone-H2AX(Ser139), total Histone-H2AX, cleaved-PARP, p21, p53, and alpha-tubulin were detected using the Li-Cor Odyssey imaging system (Li-Cor Biotechnology; Lincoln, Nebr.), following incubation with the appropriate primary and secondary antibodies. The phos-Histone-H2AX(Ser139), cleaved-PARP, and p21 antibodies were from Cell Signaling Technology, Inc. The p53 and total Histone-H2AX (C-20) antibodies were from Santa Cruz Biotechnology, Inc. (Santa Cruz, Calif.). The alpha-tubulin and DNMT1 antibodies were purchased from EMD Chemicals, Inc. (Gibbstown, N.J.) and Abcam, Inc. (Cambridge, Mass.), respectively. The goat anti-Rabbit IRDye 680, goat anti-Mouse IRDye 800CW, and donkey anti-Goat IRDye 800CW secondary antibodies were from Li-Cor Biotechnology.
(§5) Reduced DNMT1 levels were detected in these cell lines as early as 4 hours after drug treatment (FIG. 17).

NSCLC cell lines = assay: Cell viability dose-response profiles, all cell lines; type: cell-based; conditions: 72 hours; dose range
Procedure: as §1, with “For all other assays, cells were seeded at 0.6-1.2×10^5 cells per well, in 6-well plates, using 4 mL of medium per well, with fresh drug added directly to the medium every 24 hours.” left out
as §2
The six data sets represent calculations of EC50 values from raw data using Prism®. The standard deviation among the three independent experiments was determined at each drug concentration. […]

A549 cells = assay: Gene expression microarray analysis, A549; type: cell-based, human; conditions: 48 hours; for Downregulated Genes: AZA-Specific / DAC-Specific Genes (number) / Upregulated Genes: AZA-Specific / DAC-Specific Genes (number) / Downregulated Genes: Genes in Common (number) / Upregulated Genes: Genes in Common (number) / Regulation of genes in the Response to DNA Damage Stimulus/DNA Repair biogroup: A549; for Downregulated Genes: Genes in Common (number) / Upregulated Genes: Genes in Common (number): regulated by both AZA and DAC;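 on Downregulated Genes: AZA-Specific / DAC-Specific Genes (number): drug dose range 0.3 to 3 µM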;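 on Downregulated Genes: Genes in Common (number): drug dose range 0.3 to 3 µM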;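 on Upregulated Genes: AZA-Specific / DAC-Specific Genes (number): drug dose range 0.3 to 3 µM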;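 on Upregulated Genes: Genes in Common (number): drug dose range 0.3 to 3 µM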
Procedure: Cells were lysed using the TRIzol reagent (Life Technologies Corporation) and total RNA was isolated using miRNeasy (Qiagen). Double-stranded cDNA and biotin-labeled cRNA were synthesized using 100 ng of total RNA using Ambion's MessageAmp Premier RNA Amplification Kit (ABI; Foster City, Calif.). Biotin-labeled cRNA, at 10 μg, was fragmented and hybridized to each human U133A 2.0 genechip (Affymetrix; Santa Clara, Calif.). The GC-RMA algorithm was used for normalization and all analyses were done using GeneSpring 7.3 (Agilent; Santa Clara, Calif.). Averaged signals from biological duplicate samples were used to determine fold change (Treated vs. Untreated), with an absolute fold change of ≧1.7 defining regulated genes. NextBio was used to identify regulated Gene Ontology biogroups from lists of regulated genes. The top 15 biogroups are those with the lowest p-values calculated within NextBio.
The number of genes modulated in common between the two drugs was low.
Functional groupings of the modulated genes were determined using Gene Ontology classifications in Nextbio (http://www.nextbio.com/).

H1975 cells = assay: Cell cycle distribution (NIM-DAPI), H1975; type: cell-based; conditions: 72-hour treatment, 0.3-10 μM
Text: These studies examined the cell cycle distribution of NSCLC cells treated with AZA or DAC using NIM-DAPI analysis.
For cell cycle distribution, cells were stained with the NIM-DAPI reagent (Beckman Coulter, Inc.; Fullerton, Calif.). For measurement of early- and late-apoptotic cell populations, cells were stained with AnnexinV-FITC and 7-AAD reagents (Beckman Coulter, Inc.). Samples were processed according to manufacturer's instructions and analyzed on a Cell Lab Quanta MPL flow cytometer (Beckman Coulter, Inc.). […] Data were also collected for untreated cells as control.

DNMT1 [2] = assay: DNMT1 protein depletion, A549; type: cell-based; conditions: for DNMT1 protein levels: dose range
Procedure: as §4, §5

H460 cells = assay: Cell viability (CyQuant assay), H460; type: cell-based; conditions: for HillSlope / LogIC50 / IC50: H460 viability, best-fit value
Procedure: as §1, §2, §3

DNMT1 [3] = assay: DNMT1 protein depletion, H460; type: cell-based; conditions: for DNMT1 protein levels: dose range
Procedure: as §4, §5

[4] = Homo sapiens, NCI-H460, 72 hours
[5] = 0.3-10 μM, 24 h and 48 h (Example 5)

SMILES	HillSlope (H23 cells)	LogIC50 (H23 cells)	EC50 (H23 cells)	IC50 (H23 cells)	HillSlope (H1299 cells)	LogIC50 (H1299 cells)	EC50 (H1299 cells)	IC50 (H1299 cells)	DNMT1 protein levels (DNMT1 [1]; 20 hours)	Viability profile at high doses (NSCLC cell lines)	Downregulated Genes: AZA-Specific / DAC-Specific Genes (number) (A549 cells; 0.3 μM)	Upregulated Genes: AZA-Specific / DAC-Specific Genes (number) (A549 cells; 0.3 μM, fold change ≧1.7)	Downregulated Genes: Genes in Common (number) (A549 cells; 0.3 μM)	Upregulated Genes: Genes in Common (number) (A549 cells; 0.3 μM)	Downregulated Genes: AZA-Specific / DAC-Specific Genes (number) (A549 cells; 1.0 μM)	Upregulated Genes: AZA-Specific / DAC-Specific Genes (number) (A549 cells; 1.0 μM)	Downregulated Genes: Genes in Common (number) (A549 cells; 1.0 μM)	Upregulated Genes: Genes in Common (number) (A549 cells; 1.0 μM)	Downregulated Genes: AZA-Specific / DAC-Specific Genes (number) (A549 cells; 3.0 μM)	Upregulated Genes: AZA-Specific / DAC-Specific Genes (number) (A549 cells; 3.0 μM)	also measured
Nc1ncn([C@@H]2O[C@H](CO)[C@@H](O)[C@H]2O)c(=O)n1 [AZA, 4-amino-1-β-D-ribofuranosyl-1,3,5-triazin-2(1H)-one]	−1.054	1.005	10.1 µM	10.1 µM	−1.138	0.7095	5.1 µM	5.12 µM	significantly reduced	cytotoxic activities at high doses	14	16	11	17	273	279	30	45	560	636	Downregulated Genes: Genes in Common (number) (A549 cells; 3.0 μM): 55; Upregulated Genes: Genes in Common (number) (A549 cells; 3.0 μM): 66; Regulation of genes in the Response to DNA Damage Stimulus/DNA Repair biogroup (A549 cells): general upregulation; Cell cycle distribution (NIM DAPI) (H1975 cells): decrease of cells in G0/G1 and accumulation of cells in G2/M and Sub-G1; DNMT1 protein levels (DNMT1 [2]; 20 hours): significantly reduced; EC50 (H460 cells; H460, 72 hours, read-out: EC50 of effect on viability): 1700 nM; HillSlope (H460 cells; 72 hours): −0.8940; LogIC50 (H460 cells; 72 hours): 0.2413; EC50 (H460 cells; Homo sapiens, NCI-H460, 72 h, H460, read-out: EC50 of effect on viability): 1240 nM; IC50 (H460 cells; [4]): 1.74 µM; DNMT1 protein levels (DNMT1 [3]; 20 hours): significantly reduced
Nc1ncn([C@H]2C[C@H](O)[C@@H](CO)O2)c(=O)n1 [DAC, 5-aza-2′-deoxycytidine]	−0.3790	1.268	18.5 µM	18.5 µM	−0.4536	0.7153	5.2 µM	5.19 µM	significantly reduced	cytostatic activity at high doses	55	139	11	17	111	261	30	45	239	413	DNMT1 depletion (DNMT1 [1]; 0.3-10 μM, 48 h (Example 5)): able to cause DNMT1 depletion; Relative potency in reducing DNMT1 levels (DNMT1 [1]; 20 hours): more potent than AZA; Fold more genes modulated than AZA (A549 cells; A549 (stated for A549 and H1299 together), 0.3 μM): 4- to 20 fold; Downregulated Genes: Genes in Common (number) (A549 cells; 3.0 μM): 55; Upregulated Genes: Genes in Common (number) (A549 cells; 3.0 μM): 66; Regulation of genes in the Response to DNA Damage Stimulus/DNA Repair biogroup (A549 cells): general downregulation; Cell cycle distribution (NIM DAPI) (H1975 cells): slight increases in G2/M and Sub-G1; DNMT1 depletion (DNMT1 [2]; [5]): able to cause DNMT1 depletion; Relative potency in reducing DNMT1 levels (DNMT1 [2]; 20 hours): more potent than AZA; Concentration of maximal reduction of DNMT1 levels (DNMT1 [2]; 20 hours, lowest concentration tested): 0.05 µM; DNMT1 protein levels (DNMT1 [2]; 20 hours): significantly reduced; HillSlope (H460 cells; 72 hours): −0.3814; LogIC50 (H460 cells; 72 hours): 2.053; EC50 (H460 cells; Homo sapiens, NCI-H460, H460, 72 hours, read-out: EC50 of effect on viability): > 25000 nM; IC50 (H460 cells; [4]): 113 µM; DNMT1 depletion (DNMT1 [3]; [5]): able to cause DNMT1 depletion; Relative potency in reducing DNMT1 levels (DNMT1 [3]; 20 hours): equipotent; DNMT1 protein levels (DNMT1 [3]; 20 hours): significantly reduced

Source: US8841277B2, “Methods for treating non-small cell lung cancer using 5-azacytidine” (Celgene Corporation, priority 2009, dated 2014)
